From patent US5420276A, “Analogs of oxetanyl purines and pyrimidines” (Abbott Laboratories, priority 1993, dated 1995)
≈ marks a conversion by molar mass, not a printed value.

Key:
HSV-1 (E-377) = assay: CPE inhibition assay (MTT), HSV-1 (E-377) in Vero cells; type: cell-based, herpes simplex virus type 1; conditions: Human alphaherpesvirus 1, inhibited CPE by 50%
Experimental: Vero cells were pregrown as monolayers in wells of COSTAR 96-well tissue culture plates using suitable cell culture media. Stock viruses were pretitered according to the method of Reed and Muench (Amer. J. Hyg. 27 493 (1938)) and diluted in cell culture medium to yield 32 CCID50 (cell culture infectious dose, 50%) units per 0.1 mL. Antiviral assays were designed to test six concentrations of each compound, from cytotoxic to noncytotoxic levels, in triplicate against each of the challenge viruses in microtiter plate wells containing cell monolayers. To each of the replicate cell cultures were added 0.1 mL of the test-compound solution and 0.1 mL of virus suspension. Two compounds were evaluated per plate. The following controls were included:
(1) Cell controls containing cells+medium;
(2) Untreated, virus-infected cell controls;
(3) Test-compound cytotoxicity controls containing uninfected, test-compound treated cells;
(4) Test-compound color controls-test-compound+medium (no cells); and
(5) Reagent (experiment medium) controls-medium only (no cells).
The covered plates were incubated at 37° C. in a humidified atmosphere containing 2% CO2. When cytopathogenic effect (CPE) in untreated virus control wells reached 100%, 20 μL of 3-(4,5-dimethyl-thiazol-2-yl)-2,5-diphenyl tetrazolium bromide (MTT) (dissolved in PBS at 5 mg/mL) was pipetted into each of the plate wells. The plates were incubated at 37° C. for six hours; then 40 μL of 30% SDS (in 0.02N HCl) was added to each well. After overnight incubation at 37° C., the blue color or the MTT formazan was measured spectrophotometrically at 570 nm. The optical density (OD) value of each culture is a function of the amount of formazan produced which is proportional to the number of viable cells. A computer program was utilized to calculate the percent (CPE) reciprocal of % CPE reduction) of the virus-infected wells and % cell viability of the uninfected test-compound control wells.
The IC50 value is the minimum test-compound concentration (μg/mL) that inhibited CPE by 50% calculated by using a regression analysis program for semilog curve fitting. The TC25 value is the minimum test-compound concentration (μg/mL) that reduced cell viability by 25%.

[1] = test system: Herpes Simplex Virus Type 1; assay: Neutral red dye uptake assay for antiviral activity, HSV-1 in Vero cells; type: cell-based; conditions: Human alphaherpesvirus 1, HSV-1, Vero, concentration at which 50% CPE would be observed, read-out: MIC50
Experimental: Vero cell monolayers were harvested by trypsinization. The number of viable cells per ml. was determined by staining an aliquot with trypan blue and counting in a hemocytometer. Cell densities were adjusted in growth medium to contain 4×10^5 cells/mi. 96-well sterile tissue culture plates were seeded with 100 μl/well of the adjusted cell suspensions, i.e., 4×10^4 cells/well. Seeded plates were incubated overnight at 37° C. with CO2.
After overnight incubation, monolayers were approximately confluent. The growth medium was removed and the monolayers in each cell were infected with 100 μl of virus diluted in maintenance medium to produce approximately 90% cytopathogenic effect (CPE) after 2 to 3 days incubation. The virus was allowed to adsorb for 1 hour at 37° C. with 4 to 6% CO2. Controls for cell growth were overlayed with virus-free maintenance medium. The maintenance medium containing residual virus was removed.
The test compounds were dissolved and/or diluted in maintenance medium to the concentration desired for testing and were added to the wells of the plate. Aliquots (100 μl ) of each concentration were added to wells in replicate (duplicate or triplicate). Controls for virus activity were overlayed with drug-free maintenance medium. Replicate wells containing only maintenance medium served as controls for background absorbance levels.
After incubation, the medium was removed from all the wells. 100 μl of neutral red solution was added to each well and the plate was incubated at 37° C. without CO2 for 2 hours. After the 2 hour incubation, the excess neutral red solution was removed. […]
The neutral red stain taken up by the viable cells was extracted by adding 100 μl/well of acidified methanol, pH 1.0. […] The amount of neutral red stain extracted into the methanol was quantified by determining the absorbance at a wavelength of 540 nm.
The percent CPE in virus controls was determined by the following formula: [formula]
The percent CPE in cells infected with virus and treated with the test compound was determined by the following formula: [formula] […]

O=c1[nH]c(=O)n([C@@H]2O[C@H](CO)[C@H]2CO)cc1C=CBr [Example 44, 1-([2'R, 3'R, 4'S]-3',4'-Bis(hydroxymethyl)-2'-oxetanyl)-5-(2-bromo-1-vinyl)uracil]
IC50 (HSV-1 (E-377)): 0.072 µg/mL (≈ 0.216 µM) | EC50 [1]: 0.09 µg/mL (≈ 0.27 µM)
